According to the supplement of paper PMC10307832:

Key:
Experiment in all cases: relative viability (nuclei count vs DMSO), 5 days (fraction); higher = more cells survive
[1] = compound: O=c1ncccn1[C@@H]1O[C@H](CO)[C@@H](O)[C@H]1O [Zebularine] + COc1cccc2cc(-c3nc([C@H]4CC[C@H](C(=O)O)CC4)n4ncnc(N)c34)[nH]c12 [OSI-027] (partner 0.5 µM)
In short: (§1)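 Lung cancer cell lines were pin-tool dosed in 1536-well plates on the day after seeding, with either a lone drug or a fixed anchor-drug dose plus five library-drug doses (not always all listed) in √10 steps. Nuclei were counted on 4× images after 5 days. Relative viability is the ratio of treated-well to vehicle-well nuclei counts, with each value a median of duplicate plates.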

[2] = compound: O=c1ncccn1[C@@H]1O[C@H](CO)[C@@H](O)[C@H]1O [Zebularine] + C[C@]1(O)C[C@@H](c2nc(-c3ccc4ccc(-c5ccccc5)nc4c3)c3c(N)nccn32)C1 [Linsitinib] (partner 1 µM)
In short: as §1

[3] = compound: O=c1ncccn1[C@@H]1O[C@H](CO)[C@@H](O)[C@H]1O [Zebularine] + Cc1nc(NC(=O)N2CCC[C@H]2C(N)=O)sc1-c1ccnc(C(C)(C)C(F)(F)F)c1 [Alpelisib] (partner 2 µM)
In short: as §1

[4] = compound: O=c1ncccn1[C@@H]1O[C@H](CO)[C@@H](O)[C@H]1O [Zebularine] + O=C(CCCCCCC(=O)Nc1ccccc1)NO [Vorinostat] (partner 1 µM)
In short: as §1

| Cell Line | relative viability ([1]; first compound 1 µM) | relative viability ([1]; first compound 3.162 µM) | relative viability ([1]; first compound 10 µM) | relative viability ([1]; first compound 31.62 µM) | relative viability ([1]; first compound 100 µM) | relative viability ([2]; first compound 1 µM) | relative viability ([2]; first compound 3.162 µM) | relative viability ([2]; first compound 10 µM) | relative viability ([2]; first compound 31.62 µM) | relative viability ([2]; first compound 100 µM) | relative viability ([3]; first compound 1 µM) | relative viability ([3]; first compound 3.162 µM) | relative viability ([3]; first compound 10 µM) | relative viability ([3]; first compound 31.62 µM) | relative viability ([3]; first compound 100 µM) | relative viability ([4]; first compound 1 µM) | relative viability ([4]; first compound 3.162 µM) | relative viability ([4]; first compound 10 µM) | relative viability ([4]; first compound 31.62 µM) | relative viability ([4]; first compound 100 µM) |
| --- | --- | --- | --- | --- | --- | --- | --- | --- | --- | --- | --- | --- | --- | --- | --- | --- | --- | --- | --- | --- |
| LC-2-ad | 0.858 | 0.559 | 0.546 | 0.573 | 0.529 | 0.924 | 0.844 | 0.591 | 0.496 | 0.157 | 1.03 | 0.865 | 0.539 | 0.491 | 0.135 | 0.759 | 0.691 | 0.527 | 0.644 | 0.324 |
| CAL-12T | 0.816 | 0.552 | 0.387 | 0.688 | 0.542 | 0.819 | 0.794 | 0.716 | 0.896 | 0.464 | 1.49 | 1.07 | – | 1.28 | 1.1 | 1.16 | 0.96 | 0.452 | 0.897 | 0.54 |
| RERF-LC-KJ | 0.715 | 0.523 | 0.51 | 0.548 | 0.575 | 0.99 | 0.916 | – | 1.01 | 1.03 | 0.93 | 0.859 | 0.611 | 1.03 | 0.753 | 0.734 | 0.738 | 0.633 | 0.762 | 0.683 |
| NCI-H1650 | 0.842 | 0.663 | 0.285 | 0.834 | 0.416 | – | – | – | – | – | – | – | – | – | – | 0.645 | 0.57 | 0.506 | 0.748 | 0.373 |
| BEN | 0.544 | 0.29 | 0.279 | 0.24 | 0.272 | 0.911 | 0.777 | 0.432 | 0.384 | 0.308 | 0.991 | 0.897 | 0.454 | 0.372 | 0.377 | 0.701 | 0.603 | 0.486 | 0.411 | 0.373 |
| EMC-BAC-2 | 0.406 | 0.366 | 0.341 | 0.387 | 0.368 | 0.899 | 0.886 | 0.637 | 0.879 | 0.839 | 0.799 | 0.583 | 0.456 | 0.878 | 0.773 | 0.521 | 0.481 | 0.495 | 0.42 | 0.481 |
| LU99A | 0.314 | 0.278 | 0.284 | 0.294 | 0.216 | 0.66 | 0.529 | 0.437 | 0.344 | 0.169 | 0.58 | 0.506 | 0.451 | 0.292 | 0.152 | 0.536 | 0.513 | 0.414 | 0.379 | 0.174 |
| NCI-H2170 | 0.86 | 0.63 | 0.569 | 0.678 | 0.432 | – | – | – | – | – | 0.85 | 0.84 | 0.543 | 0.684 | 0.507 | 0.886 | 0.842 | 0.533 | 0.868 | 0.581 |
| NCI-H1299 | – | – | – | – | – | 1.09 | 0.993 | 0.984 | 1.07 | 0.535 | 1.05 | 1.16 | 0.836 | 1.16 | 0.529 | – | – | – | – | – |
| EBC-1 | – | – | – | – | – | 1.1 | 0.975 | 0.979 | 1.21 | 0.854 | 0.899 | 0.832 | 0.711 | 1.02 | 0.857 | – | – | – | – | – |
| NCI-H1648 | 0.27 | 0.314 | 0.244 | 0.253 | 0.249 | – | – | – | – | – | – | – | – | – | – | 0.554 | 0.494 | 0.479 | 0.262 | 0.48 |
| NCI-H1792 | 0.67 | 0.668 | 0.318 | 0.384 | 0.366 | 0.571 | 0.441 | 0.541 | 0.267 | 0.296 | 0.8 | 0.622 | 0.514 | 0.215 | 0.316 | – | – | – | – | – |
| ChaGo-K-1 | 0.66 | 0.593 | 0.331 | 0.239 | 0.23 | – | – | – | – | – | – | – | – | – | – | 0.767 | 0.648 | 0.442 | 0.274 | 0.252 |
| A549 | – | – | – | – | – | 0.741 | 0.635 | 0.304 | 0.716 | 0.279 | 0.923 | 0.658 | – | 0.625 | 0.317 | – | – | – | – | – |
| NCI-H1563 | 0.81 | 0.776 | 0.572 | 0.89 | 0.76 | 1.21 | 1.17 | 1.17 | 1.22 | 1.17 | 0.932 | 0.888 | 0.927 | 0.955 | 0.909 | – | – | – | – | – |
| NCI-H522 | 0.769 | 0.544 | 0.683 | 0.676 | 0.707 | – | – | – | – | – | – | – | – | – | – | 0.797 | 0.938 | 0.802 | 1.01 | 0.778 |
| IA-LM | – | – | – | – | – | 0.723 | 0.794 | – | 0.878 | 0.503 | 0.768 | 0.584 | 0.494 | 1.13 | 0.996 | 1.01 | 0.697 | 0.365 | 1.02 | 0.854 |
| NCI-H1703 | – | – | – | – | – | 0.633 | 0.512 | 0.644 | 0.941 | 0.525 | 0.311 | 0.337 | 0.307 | 0.325 | 0.353 | – | – | – | – | – |
| SW 900 | 0.842 | 0.621 | 0.306 | 0.543 | 0.427 | – | – | – | – | – | – | – | – | – | – | 0.497 | 0.667 | – | 0.67 | 0.503 |
